From ChEMBL document CHEMBL1201862, “PubChem BioAssay data set” (2004)
Active and inactive are the calls of the source.

Molecular target: Cytochrome P450 2C19 (Homo sapiens, UniProt P33261)
Assay: Cytochrome panel assay with activity outcomes. Panel member name: p450-cyp2c19 Compounds with AC50 equal or less than 10 uM are considered active
Type: functional
Conditions: not given

Chain of Cytochrome P450 2C19 (P33261 whole entry): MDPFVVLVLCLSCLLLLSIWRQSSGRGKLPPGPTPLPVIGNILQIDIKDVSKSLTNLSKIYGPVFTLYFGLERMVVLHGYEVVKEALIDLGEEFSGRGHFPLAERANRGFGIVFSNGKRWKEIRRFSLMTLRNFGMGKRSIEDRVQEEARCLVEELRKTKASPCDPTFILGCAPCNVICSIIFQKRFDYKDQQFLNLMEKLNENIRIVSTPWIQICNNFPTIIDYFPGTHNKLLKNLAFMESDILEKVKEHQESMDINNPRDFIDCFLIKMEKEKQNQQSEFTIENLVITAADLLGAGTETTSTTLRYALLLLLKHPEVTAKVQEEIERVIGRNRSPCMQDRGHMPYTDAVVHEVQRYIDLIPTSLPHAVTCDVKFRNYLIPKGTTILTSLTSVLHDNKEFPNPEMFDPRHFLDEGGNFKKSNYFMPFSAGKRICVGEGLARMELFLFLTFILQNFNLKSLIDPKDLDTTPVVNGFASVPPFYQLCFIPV

Row | Structure (SMILES) | AC50
1 | C[C@]1(C(=O)O)[C@@H]2CC[C@@H](O2)[C@@]1(C)C(=O)O | inconclusive
2 | O=C(O)c1cc(O)c2c(Cl)cc(Cl)cc2n1 | inconclusive

Same assay, conditions: read-out: AC50

Row | AC50 | Structure (SMILES)
3 | 39.8 µM (inconclusive) | O=c1c(-c2ccc(F)cc2)nc2cnc(N3CCOCC3)nc2n1CCc1ccccc1
4 | 25.1 µM (inconclusive) | Cc1ccccc1NC(S)=NN1CCN(C)CC1
5 | 3.55 µM (inconclusive) | O=C(CSc1ccc(Cl)cc1)Nc1ccc(N2CCN(c3ccccc3)CC2)c(F)c1
6 | 11.2 µM (inconclusive) | Cc1cccc(C(=O)NNC(=O)C(=O)NC(C)(C)C)c1

System: INS1
Assay: beta cell apoptosis inhibitors, cytokine rescue, dose response, luminescence, retest (AID 449756);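 also: cell death triggered by IL-1 beta plus TNF-alpha plus IFN-gamma mixture; protective hits raise ATP signal compared with cytokine alone wells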
Type: functional, cell-based
Conditions: Rattus norvegicus

Row | Structure (SMILES) | AC50
7 | CSc1ccc(S(=O)(=O)Nc2ccc(N3CCOCC3)c(Cl)c2)cc1 | 29.8 µM (active)
8 | CC1CN(CC(O)COC(c2ccc(Cl)cc2)c2ccc(Cl)cc2)CC(C)O1 (stereo not given) | 11.9 µM (active)
9 | C#CCOCCOCCOCCNc1nc(N2CCN(C(=O)CCCCCCCCCCNC(=O)[C@H](CCCCN)n3cc(C[C@@H](C)CC)nn3)CC2)nc(N2CCN(C(=O)CCCCCCCCCCNC(=O)[C@@H]([C@H](C)O)n3cc(C)nn3)CC2)n1 | 4.74 µM (active)

Molecular target: T1, Corticotropin-releasing factor receptor 2/Corticotropin-releasing factor-binding protein (Homo sapiens, UniProt P24387+Q13324)
T1 sequence (Q13324 whole entry): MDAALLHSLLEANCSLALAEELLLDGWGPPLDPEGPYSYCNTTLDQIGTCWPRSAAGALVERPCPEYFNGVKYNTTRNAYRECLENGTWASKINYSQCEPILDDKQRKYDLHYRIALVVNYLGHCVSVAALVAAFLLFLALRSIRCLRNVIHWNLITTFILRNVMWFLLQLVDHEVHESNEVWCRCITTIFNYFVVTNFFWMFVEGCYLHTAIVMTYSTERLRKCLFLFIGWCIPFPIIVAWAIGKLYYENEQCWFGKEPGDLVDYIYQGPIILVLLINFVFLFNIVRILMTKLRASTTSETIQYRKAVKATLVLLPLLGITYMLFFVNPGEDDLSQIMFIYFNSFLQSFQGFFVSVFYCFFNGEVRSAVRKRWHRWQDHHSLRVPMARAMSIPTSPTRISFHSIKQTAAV
T1 sequence (P24387 whole entry): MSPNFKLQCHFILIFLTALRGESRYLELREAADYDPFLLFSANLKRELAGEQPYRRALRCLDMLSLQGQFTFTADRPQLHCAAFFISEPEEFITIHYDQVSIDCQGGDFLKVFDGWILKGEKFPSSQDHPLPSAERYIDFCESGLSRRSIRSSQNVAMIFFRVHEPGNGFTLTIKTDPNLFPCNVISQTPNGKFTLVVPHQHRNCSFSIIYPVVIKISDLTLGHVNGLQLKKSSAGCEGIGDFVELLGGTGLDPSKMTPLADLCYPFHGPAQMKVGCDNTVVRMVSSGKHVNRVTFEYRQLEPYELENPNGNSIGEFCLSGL
Assay: activators of CRF receptor 2 with binding protein – uHTS hits, confirmation (AID 602473)
Type: functional
Conditions: read-out: EC50_Mean

Row | EC50 | Structure (SMILES)
10 | 8.72 µM (active) | CCOc1ccc(NS(=O)(=O)c2ccc(C(=O)NCC3(N(C)C)CCCCC3)cc2)cc1
11 | 0.793 µM (active) | CCOC(=O)c1cc([N+](=O)[O-])sc1NC(=O)c1ccc(S(=O)(=O)N2CC3(C)CC2CC(C)(C)C3)cc1 (stereo not given)
12 | 8.21 µM (active) | CC(Oc1ccc(C(=O)c2ccccc2)cc1)C(=O)Nc1ccc(S(N)(=O)=O)cc1 (stereo not given)
13 | 9.35 µM (active) | CC(=O)C(C(C)=O)c1cc(NS(=O)(=O)c2ccccc2)ccc1NS(=O)(=O)c1ccccc1

Molecular target: T2, Cytochrome P450 1A2 (Homo sapiens, UniProt P05177);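 also: PubChem cytochrome P450 panel assay, CYP1A2 panel member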
T2 sequence (P05177 whole entry): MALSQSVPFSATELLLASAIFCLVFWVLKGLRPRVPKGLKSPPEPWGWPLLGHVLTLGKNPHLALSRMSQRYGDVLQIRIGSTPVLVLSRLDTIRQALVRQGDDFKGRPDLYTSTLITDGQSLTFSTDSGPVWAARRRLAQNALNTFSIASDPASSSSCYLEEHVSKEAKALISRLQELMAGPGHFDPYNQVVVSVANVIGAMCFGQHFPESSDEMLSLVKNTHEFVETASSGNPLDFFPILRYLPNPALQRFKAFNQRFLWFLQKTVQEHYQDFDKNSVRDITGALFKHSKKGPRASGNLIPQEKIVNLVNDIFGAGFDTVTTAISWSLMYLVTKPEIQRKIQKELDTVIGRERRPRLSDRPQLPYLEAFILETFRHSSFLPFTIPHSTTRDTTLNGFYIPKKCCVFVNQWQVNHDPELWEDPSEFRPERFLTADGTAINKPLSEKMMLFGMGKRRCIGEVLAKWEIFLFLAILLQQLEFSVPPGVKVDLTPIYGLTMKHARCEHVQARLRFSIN
Conditions: not given

Row | AC50 | Structure (SMILES)
14 | 25.1 µM (inconclusive) | O=c1c(-c2ccc(F)cc2)nc2cnc(N3CCOCC3)nc2n1CCc1ccccc1
15 | 39.8 µM (inconclusive) | O=C(O)c1cc(O)c2c(Cl)cc(Cl)cc2n1

System: not listed separately
Assay: HEp-2 cell cytotoxicity, dose response, cytotoxicity control for RSV inhibitor project, HTS (AID 2410)
Type: functional
Conditions: human respiratory syncytial virus

Row | Structure (SMILES) | CC50
16 | COc1ccccc1NC(=O)CC(=O)CSc1nnc(-c2ccc(C)cc2)n1C | 17.7 µM (active)
17 | CCCc1cc(O)nc(SCC(=O)c2cc(C)n(C3CC3)c2C)n1 | 43.1 µM (active)
18 | O=c1cc(-c2ccccc2Cl)oc2c(NS(=O)(=O)c3cccs3)ccc(O)c12 | 22 µM (active)
19 | CCO[C@@H]1OC(C(=O)Nc2ccccc2)=C[C@H](c2csc3ccccc23)[C@H]1CCCO | 22.4 µM (active)
20 | O=C(Nc1cc(Cl)ccc1O)C1CC(c2ccccc2Cl)=NO1 (stereo not given) | > 50 µM (active)
21 | CSc1nc2ccccc2n1CC(=O)Nc1cc(C(F)(F)F)ccc1N1CCOCC1 | 42.4 µM (active)
22 | N#Cc1cccc(Nc2c3c(nc4ccccc24)CCCC3)c1 | 15.9 µM (active)
23 | Clc1ccc2c(c1)C1OCCC1C(c1ccco1)N2 (stereo not given) | 33.4 µM (active)
24 | CC(C)NC(=O)c1c(O)c2cccc3c2n(c1=O)CCC3 | 17.3 µM (active)
25 | O=C(CCC1N=C2c3ccccc3N=C(SCc3ccc(Cl)cc3)N2C1=O)NCc1ccco1 (stereo not given) | 25.4 µM (active)
